Reference: PMC4704483 (2015)

System: (CUG)100, internal fluorescein-labeled (RNA, repeat) CUGCUGCUGCUGCUGCUGCUGCUGCUGCUGCUGCUGCUGCUGCUGCUGCUGCUGCUGCUGCUGCUGCUGCUGCUGCUGCUGCUGCUGCUGCUGCUGCUGCUGCUGCUGCUGCUGCUGCUGCUGCUGCUGCUGCUGCUGCUGCUGCUGCUGCUGCUGCUGCUGCUGCUGCUGCUGCUGCUGCUGCUGCUGCUGCUGCUGCUGCUGCUGCUGCUGCUGCUGCUGCUGCUGCUGCUGCUGCUGCUGCUGCUGCUGCUGCUGCUGCUGCUGCUGCUGCUGCUGCUGCUGCUGCUGCUGCUGCUG
Assay: fluorescence titration
Details: data not shown

| SMILES | K d (salt form not stated) [nM] | K d [nM] |
| --- | --- | --- |
| CC[C@H]1OC(=O)[C@H](C)[C@@H](O[C@H]2C[C@@](C)(OC)[C@@H](O)[C@H](C)O2)[C@H](C)[C@@H](O[C@@H]2O[C@H](C)C[C@H](N(C)C)[C@H]2O)[C@](C)(O)C[C@@H](C)C(=O)[C@H](C)[C@@H](O)[C@]1(C)O | < 1000 |  |
| NC[C@@H]1O[C@H](O[C@H]2[C@@H](O)[C@H](O[C@@H]3[C@@H](O)[C@H](N)C[C@H](N)[C@H]3O[C@H]3O[C@H](CN)[C@@H](O)[C@H](O)[C@H]3N)O[C@@H]2CO)[C@H](N)[C@@H](O)[C@@H]1O |  | < 1000 |
